Values quoted from earlier work in patent US20230116647A1 (Bausch Health Ireland Limited, priority 2020, published 2023).

Legend:
[1] = system: proteoglycan (PG)-induced ankylosing spondylitis; settings: administered for 4 consecutive weeks; cited from earlier work
[2] = system: species of Staphylococcus, Streptococcus, Enterococcus, and Enterobacteriaceae; settings: cited from earlier work
[3] = system: NASH; settings: after 6 months of therapy; all P<0.05; cited from earlier work
[4] = system: Minimal Hepatic Encephalopathy; settings: cited from earlier work
[5] = system: Hepatic Encephalopathy; settings: mouse, in vivo; cited from earlier work
[6] = system: visceral hyperalgesia; settings: rat, in vivo; cited from earlier work

Compound | inflammatory factors, such as TNF-α, IL-6, IL-17A, and IL-23 [1] | severity of ankylosing spondylitis [1] | in vitro activity against bacteria [2] | homeostatic model assessment, ALT, AST, γ-glutamyl transferase, endotoxin, toll-like receptor-4, IL-6, TNF-α, CK-18, NAFLD-liver fat score [3] | responders in whom all alterations of the immune system were normalized ([4]; human, in vivo) [%] | effect on alterations of the immune system in non-responders ([4]; non-responders) | microbiota function (endotoxin, deconjugation and formation of secondary bile acids) [5] | systemic inflammation (serum IL-1β, IL-6), intestinal barrier, microbiota composition and function [5] | mucosal inflammation, measured by levels of IL-17, IL-6 and TNF-α [6] | overall quantity of bacteria in the ileum [6] | elevation in IL-17, IL-6, or TNF-α [6] | visceral pain [6]
CO[C@H]1/C=C/O[C@@]2(C)Oc3c(C)c(O)c4c(O)c(c5c(nc6cc(C)ccn65)c4c3C2=O)NC(=O)/C(C)=C\C=C\[C@H](C)[C@H](O)[C@@H](C)[C@@H](O)[C@@H](C)[C@H](OC(C)=O)[C@@H]1C [rifaximin, Rifaximin] | down-regulation | significantly reduced | active | significant reduction | 59 | normalizes only IL-6, CCL20, and differentiation of T lymphocytes to Th22 | favorably impacted | improved | decreased | decreased | – | –
neomycin | – | – | – | – | – | – | – | – | – | – | did not prevent | did not decrease
